Measurements as given in US9108903B2, “Amides as modulators of sodium channels” (VERTEX PHARMACEUTICALS INCORPORATED, priority 2013, dated 2015).

Target: human Nav1.8 (Homo sapiens (Human), UniProt Q9Y5Y9)
Experiment: E-VIPR optical membrane potential assay with electrical stimulation
Assay type: cell-based
Conditions: HEK cells expressing human Nav1.8
Excerpt: Assays for Detecting and Measuring NaV Inhibition Properties of Compounds E-VIPR Optical Membrane Potential Assay Method with Electrical Stimulation
Sodium channels are voltage-dependent proteins that can be activated by inducing membrane voltage changes by applying electric fields. The electrical stimulation instrument and methods of use are described in Ion Channel Assay Methods PCT/US01/21652, herein incorporated by reference and are referred to as E-VIPR. The instrument comprises a microtiter plate handler, an optical system for exciting the coumarin dye while simultaneously recording the coumarin and oxonol emissions, a waveform generator, a current- or voltage-controlled amplifier, and a device for inserting electrodes in well. Under integrated computer control, this instrument passes user-programmed electrical stimulus protocols to cells within the wells of the microtiter plate.
24 hours before the assay on E-VIPR, HEK cells expressing human Nav1.8 were seeded in 384-well poly-lysine coated plates at 15,000-20,000 cells per well. HEK cells were grown in media (exact composition is specific to each cell type and NaV subtype) supplemented with 10% FBS (Fetal Bovine Serum, qualified; GibcoBRL #16140-071) and 1% Pen-Strep (Penicillin-Streptomycin; GibcoBRL #15140-122). Cells were grown in vented cap flasks, in 90% humidity and 5% CO2.
100 mg/mL Pluronic F-127 (Sigma #P2443), in dry DMSO
Compound Plates: 384-well round bottom plate, e.g. Corning 384-well Polypropylene Round Bottom #3656
Cell Plates: 384-well tissue culture treated plate, e.g. Greiner #781091-1B
Bath1 buffer: Glucose 10 mM (1.8 g/L), Magnesium Chloride (Anhydrous), 1 mM (0.095 g/L), Calcium Chloride, 2 mM (0.222 g/L), HEPES 10 mM (2.38 g/L), Potassium Chloride, 4.5 mM (0.335 g/L), Sodium Chloride 160 mM (9.35 g/L).
Hexyl Dye Solution: Bath1 Buffer+0.5% β-cyclodextrin (make this prior to use, Sigma #C4767), 8 μM CC2-DMPE+2.5 μM DiSBAC6(3). To make the solution added volume of 10% Pluronic F127 stock equal to volumes of CC2-DMPE+DiSBAC6(3). The order of preparation was first mix Pluronic and CC2-DMPE, then added DiSBAC6(3) while vortexing, then added Bath1+β-Cyclodextrin.
1) Pre-spotted compounds (in neat DMSO) into compound plates. Vehicle control (neat DMSO), the positive control (20 mM DMSO stock tetracaine, 125 μM final in assay) and test compounds were added to each well at 160× desired final concentration in neat DMSO. Final compound plate volume was 80 μL (80-fold intermediate dilution from 1 μL DMSO spot; 160-fold final dilution after transfer to cell plate). Final DMSO concentration for all wells in assay was 0.625%.
2) Prepared Hexyl Dye Solution.
3) Prepared cell plates. On the day of the assay, medium was aspirated and cells were washed three times with 100 μL of Bath1 Solution, maintaining 25 μL residual volume in each well.
4) Dispensed 25 μL per well of Hexyl Dye Solution into cell plates. Incubated for 20-35 minutes at room temp or ambient conditions.
5) Dispensed 80 μL per well of Bath1 into compound plates. Acid Yellow-17 (1 mM) was added and Potassium Chloride was altered from 4.5 to 20 mM depending on the NaV subtype and assay sensitivity.
6) Washed cell plates three times with 100 μL per well of Bath1, leaving 25 μL of residual volume. Then transfered 25 uL per well from Compound Plates to Cell Plates. Incubated for 20-35 minutes at room temp/ambient condition.
7) Read Plate on E-VIPR. Used the current-controlled amplifier to deliver stimulation wave pulses for 10 seconds and a scan rate of 200 Hz. A pre-stimulus recording was performed for 0.5 seconds to obtain the un-stimulated intensities baseline. The stimulatory waveform was followed by 0.5 seconds of post-stimulation recording to examine the relaxation to the resting state.
Data was analyzed and reported as normalized ratios of emission intensities measured in the 460 nm and 580 nm channels. The response as a function of time was reported as the ratios obtained using the following formula: […]

Sequence of human Nav1.8 (Q9Y5Y9 whole entry): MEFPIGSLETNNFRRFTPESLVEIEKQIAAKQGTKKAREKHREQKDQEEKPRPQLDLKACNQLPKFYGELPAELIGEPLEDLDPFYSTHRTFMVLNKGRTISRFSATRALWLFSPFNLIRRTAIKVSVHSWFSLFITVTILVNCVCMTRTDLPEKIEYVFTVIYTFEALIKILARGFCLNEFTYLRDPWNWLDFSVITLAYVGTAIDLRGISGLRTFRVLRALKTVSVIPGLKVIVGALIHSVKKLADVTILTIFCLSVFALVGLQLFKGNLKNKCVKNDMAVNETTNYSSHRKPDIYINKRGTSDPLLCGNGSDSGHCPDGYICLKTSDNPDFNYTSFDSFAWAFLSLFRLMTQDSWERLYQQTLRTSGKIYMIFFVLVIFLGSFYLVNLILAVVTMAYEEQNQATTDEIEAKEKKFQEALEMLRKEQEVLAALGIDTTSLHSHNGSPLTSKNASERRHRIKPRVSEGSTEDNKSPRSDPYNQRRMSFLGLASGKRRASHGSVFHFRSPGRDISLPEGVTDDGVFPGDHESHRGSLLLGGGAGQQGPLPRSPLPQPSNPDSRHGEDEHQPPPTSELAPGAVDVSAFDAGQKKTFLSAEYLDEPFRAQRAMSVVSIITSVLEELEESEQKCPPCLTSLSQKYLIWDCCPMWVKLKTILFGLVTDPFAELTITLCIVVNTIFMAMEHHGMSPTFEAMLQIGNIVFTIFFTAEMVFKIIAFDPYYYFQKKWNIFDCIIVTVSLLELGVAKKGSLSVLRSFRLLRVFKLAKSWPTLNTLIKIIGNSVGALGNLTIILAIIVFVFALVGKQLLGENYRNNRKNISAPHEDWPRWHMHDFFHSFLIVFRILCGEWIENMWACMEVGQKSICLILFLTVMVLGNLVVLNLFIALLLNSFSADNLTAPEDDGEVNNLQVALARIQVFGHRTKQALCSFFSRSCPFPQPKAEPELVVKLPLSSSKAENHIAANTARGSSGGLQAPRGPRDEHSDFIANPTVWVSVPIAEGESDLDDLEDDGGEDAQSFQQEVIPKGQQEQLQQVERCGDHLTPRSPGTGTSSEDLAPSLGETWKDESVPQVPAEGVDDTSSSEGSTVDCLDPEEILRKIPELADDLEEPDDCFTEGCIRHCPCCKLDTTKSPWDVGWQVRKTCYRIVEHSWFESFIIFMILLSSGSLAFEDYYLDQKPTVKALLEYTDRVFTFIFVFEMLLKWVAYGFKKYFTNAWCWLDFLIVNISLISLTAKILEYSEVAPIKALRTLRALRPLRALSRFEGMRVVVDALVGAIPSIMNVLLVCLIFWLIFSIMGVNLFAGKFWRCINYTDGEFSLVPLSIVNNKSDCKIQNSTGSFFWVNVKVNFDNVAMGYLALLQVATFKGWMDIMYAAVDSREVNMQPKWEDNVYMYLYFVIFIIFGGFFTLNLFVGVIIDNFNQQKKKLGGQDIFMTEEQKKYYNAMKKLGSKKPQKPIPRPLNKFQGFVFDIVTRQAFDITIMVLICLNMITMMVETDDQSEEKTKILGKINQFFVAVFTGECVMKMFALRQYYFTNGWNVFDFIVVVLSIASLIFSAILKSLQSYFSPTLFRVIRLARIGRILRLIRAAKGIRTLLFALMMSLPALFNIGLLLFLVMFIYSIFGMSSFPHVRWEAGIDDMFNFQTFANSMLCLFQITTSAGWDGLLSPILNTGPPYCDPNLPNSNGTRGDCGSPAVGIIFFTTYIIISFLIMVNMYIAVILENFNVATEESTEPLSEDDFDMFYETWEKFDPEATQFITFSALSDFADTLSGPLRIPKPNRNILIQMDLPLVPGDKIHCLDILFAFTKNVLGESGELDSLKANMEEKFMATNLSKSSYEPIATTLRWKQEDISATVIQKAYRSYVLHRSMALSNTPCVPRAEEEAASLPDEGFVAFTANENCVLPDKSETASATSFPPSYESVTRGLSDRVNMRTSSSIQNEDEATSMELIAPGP

Row | IC50 | Structure (SMILES)
1 | 79 nM | COc1ccc(Oc2ccc(C(F)(F)F)cc2C(=O)Nc2ccc(C(=O)O)nc2)c(C)c1 [Compound 67, 5-(2-(4-methoxy-2-methylphenoxy)-5-(trifluoromethyl)benzamido)picolinic acid]
2 | 60 nM | Cc1cc(F)ccc1Oc1cc(C(F)(F)F)ccc1C(=O)Nc1ccc(C(=O)O)cc1 [Compound 5, 4-(2-(4-fluoro-2-methylphenoxy)-4-(trifluoromethyl)benzamido)benzoic acid]
3 | 32 nM | O=C(O)c1ccc(NC(=O)c2ccc(C(F)(F)C(F)(F)F)cc2Oc2ccc(F)cc2F)cc1 [Compound 2, 4-(2-(2,4-difluorophenoxy)-4-(perfluoroethyl)benzamido)benzoic acid]
4 | 58 nM | O=C(O)c1ccc(NC(=O)c2cc(Cl)c(Cl)cc2Oc2ccc(F)cc2)cc1 [Compound 13, 4-(4,5-dichloro-2-(4-fluorophenoxy)benzamido)benzoic acid]
5 | 145 nM | Cc1cc(Cl)ccc1Oc1ccc(C(F)(F)F)cc1C(=O)Nc1ccc(C(=O)O)nc1 [Compound 61, 5-(2-(4-chloro-2-methylphenoxy)-5-(trifluoromethyl)benzamido)picolinic acid]
6 | 42 nM | Cc1cc(F)ccc1Oc1cc(C(F)(F)F)cc(C(F)(F)F)c1C(=O)Nc1ccc(C(=O)O)nc1 [Compound 47, 5-(2-(4-fluoro-2-methylphenoxy)-4,6-bis(trifluoromethyl)benzamido)picolinic acid]
7 | 37 nM | O=C(O)c1ccc(NC(=O)c2ccc(C(F)(F)F)cc2Oc2ccc(OC(F)(F)F)cc2)cc1 [Compound 7, 4-(2-(4-(trifluoromethoxy)phenoxy)-4-(trifluoromethyl)benzamido)benzoic acid]
8 | 135 nM | COc1c(F)cccc1Oc1ccc(C(F)(F)F)cc1C(=O)Nc1ccc(C(=O)O)nc1 [Compound 69, 5-(2-(3-fluoro-2-methoxyphenoxy)-5-(trifluoromethyl)benzamido)picolinic acid]
9 | 11 nM | COc1cc(Cl)ccc1Oc1cc(Cl)c(Cl)cc1C(=O)Nc1ccc(C(=O)O)cc1 [Compound 18, 4-(4,5-dichloro-2-(4-chloro-2-methoxyphenoxy)benzamido)benzoic acid]
10 | 190 nM | O=C(O)c1ccc(NC(=O)c2cc(Cl)c(Cl)cc2Oc2ccccc2)cn1 [Compound 33, 5-(4,5-dichloro-2-phenoxybenzamido)picolinic acid]
11 | 15 nM | Cc1cc(F)ccc1Oc1cc(Cl)c(Cl)cc1C(=O)Nc1ccc(C(=O)O)cc1 [Compound 14, 4-(4,5-dichloro-2-(4-fluoro-2-methylphenoxy)benzamido)benzoic acid]
12 | 37 nM | COc1cc(F)ccc1Oc1cc(C(F)(F)F)cc(C(F)(F)F)c1C(=O)Nc1ccc(C(=O)O)cc1 [Compound 10, 4-(2-(4-fluoro-2-methoxyphenoxy)-4,6-bis(trifluoromethyl)benzamido)benzoic acid]
13 | 96 nM | COc1cc(F)ccc1Oc1ccc(C(F)(F)F)cc1C(=O)Nc1ccc(C(=O)O)nc1 [Compound 57, 5-(2-(4-fluoro-2-methoxyphenoxy)-5-(trifluoromethyl)benzamido)picolinic acid]
14 | 31 nM | O=C(O)c1ccc(NC(=O)c2cc(Cl)c(Cl)cc2Oc2ccc(F)cc2F)cn1 [Compound 42, 5-(4,5-dichloro-2-(2,4-difluorophenoxy)benzamido)picolinic acid]
15 | 27 nM | COc1ccc(Oc2cc(Cl)c(Cl)cc2C(=O)Nc2ccc(C(=O)O)cc2)c(OC)c1 [Compound 21, 4-(4,5-dichloro-2-(2,4-dimethoxyphenoxy)benzamido)benzoic acid]
16 | 250 nM | O=C(O)c1ccc(NC(=O)c2ccc(C(F)(F)F)cc2Oc2ccc(F)cc2)cn1 [Compound 56, 5-(2-(4-fluorophenoxy)-4-(trifluoromethyl)benzamido)picolinic acid]

Row | IC50 | Structure (SMILES)
17 | 33 nM | O=C(O)c1ccc(NC(=O)c2cc(Cl)c(Cl)cc2Oc2ccc(F)cc2Cl)cc1 [Compound 23, 4-(4,5-dichloro-2-(2-chloro-4-fluorophenoxy)benzamido)benzoic acid]
18 | 66 nM | COc1ccc(Oc2cc(C(F)(F)F)cc(C(F)(F)F)c2C(=O)Nc2ccc(C(=O)O)nc2)cc1 [Compound 46, 5-(2-(4-methoxyphenoxy)-4,6-bis(trifluoromethyl)benzamido)picolinic acid]
19 | 46 nM | O=C(O)c1ccc(NC(=O)c2cc(Cl)c(Cl)cc2Oc2ccccc2OC(F)F)cn1 [Compound 37, 5-(4,5-dichloro-2-(2-(difluoromethoxy)phenoxy)benzamido)picolinic acid]
20 | 130 nM | O=C(O)c1ccc(NC(=O)c2c(Oc3ccc(F)cc3)cc(C(F)(F)F)cc2C(F)(F)F)cn1 [Compound 50, 5-(2-(4-fluorophenoxy)-4,6-bis(trifluoromethyl)benzamido)picolinic acid]
21 | 740 nM | COc1ccc(F)cc1Oc1ccc(C(F)(F)F)cc1C(=O)Nc1ccc(C(=O)O)nc1 [Compound 59, 5-(2-(5-fluoro-2-methoxyphenoxy)-5-(trifluoromethyl)benzamido)picolinic acid]
22 | 110 nM | O=C(O)c1ccc(NC(=O)c2ccc(C(F)(F)C(F)(F)F)cc2Oc2ccc(F)cc2)cn1 [Compound 73, 5-(2-(4-fluorophenoxy)-4-(perfluoroethyl)benzamido)picolinic acid]
23 | 50 nM | O=C(O)c1ccc(NC(=O)c2cc(Cl)c(Cl)cc2Oc2ccc(OCC(F)(F)F)cc2)cn1 [Compound 35, 5-(4,5-dichloro-2-(4-(2,2,2-trifluoroethoxy)phenoxy)benzamido)picolinic acid]
24 | 20 nM | O=C(O)c1ccc(NC(=O)c2cc(Cl)c(Cl)cc2Oc2ccc(OC(F)(F)F)cc2)cn1 [Compound 44, 5-(4,5-dichloro-2-(4-(trifluoromethoxy)phenoxy)benzamido)picolinic acid]
25 | 285 nM | O=C(O)c1ccc(NC(=O)c2cc(C(F)(F)F)ccc2Oc2ccc(F)cc2)cn1 [Compound 71, 5-(2-(4-fluorophenoxy)-5-(trifluoromethyl)benzamido)picolinic acid]
26 | 290 nM | O=C(O)c1ccc(NC(=O)c2cc(Cl)c(Cl)cc2Oc2ccccc2)cc1 [Compound 15, 4-(4,5-dichloro-2-phenoxybenzamido)benzoic acid]
27 | 46 nM | Cc1cc(F)ccc1Oc1cc(C(C)(C)C)ccc1C(=O)Nc1ccc(C(=O)O)nc1 [Compound 53, 5-(4-(tert-butyl)-2-(4-fluoro-2-methylphenoxy)benzamido)picolinic acid]
28 | 24 nM | Cc1cc(Cl)ccc1Oc1cc(Cl)c(Cl)cc1C(=O)Nc1ccc(C(=O)O)cc1 [Compound 20, 4-(4,5-dichloro-2-(4-chloro-2-methylphenoxy)benzamido)benzoic acid]
29 | 31 nM | COc1cc(F)ccc1Oc1cc(C(C)(C)C)ccc1C(=O)Nc1ccc(C(=O)O)nc1 [Compound 52, 5-(4-(tert-butyl)-2-(4-fluoro-2-methoxyphenoxy)benzamido)picolinic acid]
30 | 4350 nM | O=C(O)c1ccc(NC(=O)c2ccccc2Oc2ccc(F)cc2)cn1 [Compound 55, 5-(2-(4-fluorophenoxy)benzamido)picolinic acid]
31 | 135 nM | COc1ccc(Oc2ccc(C(F)(F)F)cc2C(=O)Nc2ccc(C(=O)O)nc2)c(Cl)c1 [Compound 68, 5-(2-(2-chloro-4-methoxyphenoxy)-5-(trifluoromethyl)benzamido)picolinic acid]
32 | 108 nM | Cc1cc(F)ccc1Oc1ccc(C(F)(F)F)cc1C(=O)Nc1ccc(C(=O)O)nc1 [Compound 75, 5-(2-(4-fluoro-2-methylphenoxy)-5-(trifluoromethyl)benzamido)picolinic acid]
